Reference: ChEMBL document CHEMBL2146416 (Bioorg Med Chem, 2012)

Molecular target: 4-aminobutyrate aminotransferase, mitochondrial (Sus scrofa, UniProt P80147)
Experiment: Competitive inhibition of pig GABA aminotransferase using alpha-ketoglutarate as substrate by SSADH-coupled assay

Chain of 4-aminobutyrate aminotransferase, mitochondrial (P80147 whole entry): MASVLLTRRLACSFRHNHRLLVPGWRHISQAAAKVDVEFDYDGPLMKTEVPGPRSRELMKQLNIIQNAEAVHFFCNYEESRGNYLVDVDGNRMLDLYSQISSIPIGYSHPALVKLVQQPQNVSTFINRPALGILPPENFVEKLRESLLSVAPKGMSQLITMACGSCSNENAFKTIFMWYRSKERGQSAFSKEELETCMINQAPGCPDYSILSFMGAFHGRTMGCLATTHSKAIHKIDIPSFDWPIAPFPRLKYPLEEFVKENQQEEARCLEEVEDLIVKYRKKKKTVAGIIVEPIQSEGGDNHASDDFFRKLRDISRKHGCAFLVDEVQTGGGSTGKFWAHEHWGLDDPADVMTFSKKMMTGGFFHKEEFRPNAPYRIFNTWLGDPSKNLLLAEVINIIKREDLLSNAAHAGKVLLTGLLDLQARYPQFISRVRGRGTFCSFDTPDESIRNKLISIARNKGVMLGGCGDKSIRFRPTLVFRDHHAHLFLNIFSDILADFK

SMILES	Ki
NCc1ccc(C(=O)O)s1	2490 µM
NCc1c[nH]c(C(=O)O)c1	1590 µM
NCc1cocc1C(=O)O	2270 µM
NCc1cscc1C(=O)O	2860 µM

Further compounds by falling Ki, results first:

Ki	SMILES
2140 µM	NCc1ccc(C(=O)O)[nH]1
1640 µM	NCc1coc(C(=O)O)c1
1400 µM	NCc1ccc(C(=O)O)o1
1350 µM	NCc1csc(C(=O)O)c1
